# Measured values from ChEMBL document CHEMBL6121027, “Novel Bicyclic Heterocyclic Compounds as CD73 Inhibitors for Treating Cancer” (ACS Med Chem Lett, 2025).
# Target: 5'-nucleotidase (Homo sapiens, UniProt P21589)
# Test: Inhibition of recombinant human CD73 preincubated for 15 mins followed by AMP addition measured after 10 mins by LC/MS analysis
# Chain of 5'-nucleotidase (P21589 whole entry): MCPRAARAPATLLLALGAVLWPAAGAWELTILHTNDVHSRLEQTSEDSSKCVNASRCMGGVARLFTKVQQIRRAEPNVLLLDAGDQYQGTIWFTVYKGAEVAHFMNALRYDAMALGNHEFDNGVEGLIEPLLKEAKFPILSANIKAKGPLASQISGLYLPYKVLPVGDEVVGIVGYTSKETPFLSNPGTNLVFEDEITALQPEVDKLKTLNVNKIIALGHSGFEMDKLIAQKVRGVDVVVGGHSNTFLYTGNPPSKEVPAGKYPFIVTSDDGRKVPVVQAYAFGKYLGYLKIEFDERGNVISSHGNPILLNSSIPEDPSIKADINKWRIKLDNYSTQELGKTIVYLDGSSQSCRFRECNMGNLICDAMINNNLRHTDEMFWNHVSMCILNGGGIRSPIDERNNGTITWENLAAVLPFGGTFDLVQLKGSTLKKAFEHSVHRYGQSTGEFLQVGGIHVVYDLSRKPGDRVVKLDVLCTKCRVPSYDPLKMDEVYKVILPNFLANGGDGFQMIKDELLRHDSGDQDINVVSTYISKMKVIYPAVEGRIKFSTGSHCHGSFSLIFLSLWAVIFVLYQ
row,IC50,SMILES
1,40 pM,Cn1nc(O[C@H](c2ccnc(OCC(C)(F)F)c2)C(F)F)c2cc(-c3n[nH]c(=O)[nH]c3=O)nnc21
2,40 pM,C[C@H](Nc1cc([C@@H](Oc2nn(C)c3nnc(-c4n[nH]c(=O)[nH]c4=O)cc23)C(F)F)ccn1)C(F)(F)F
3,50 pM,COCCOc1cc([C@@H](Oc2nn(C)c3nnc(-c4n[nH]c(=O)[nH]c4=O)cc23)C(F)F)ccn1
4,40 pM,C[C@@H](Nc1cc([C@@H](Oc2nn(C)c3nnc(-c4n[nH]c(=O)[nH]c4=O)cc23)C(F)F)ccn1)C(F)(F)F
